Measurements published in patent publication US11795162B2, “Modulators of the estrogen-related receptor” (Saint Louis University, priority 2017, dated 2023).

The compounds below were run against T1, ERR gamma protein (Homo sapiens, UniProt P62508) (assay: Protein thermal shift assay). Conditions: compound at 20 μM; ERR gamma protein 0.1 mg/mL, SYPRO-Orange; read-out: T.S. (thermal shift) range.
T1 sequence (P62508 1-458): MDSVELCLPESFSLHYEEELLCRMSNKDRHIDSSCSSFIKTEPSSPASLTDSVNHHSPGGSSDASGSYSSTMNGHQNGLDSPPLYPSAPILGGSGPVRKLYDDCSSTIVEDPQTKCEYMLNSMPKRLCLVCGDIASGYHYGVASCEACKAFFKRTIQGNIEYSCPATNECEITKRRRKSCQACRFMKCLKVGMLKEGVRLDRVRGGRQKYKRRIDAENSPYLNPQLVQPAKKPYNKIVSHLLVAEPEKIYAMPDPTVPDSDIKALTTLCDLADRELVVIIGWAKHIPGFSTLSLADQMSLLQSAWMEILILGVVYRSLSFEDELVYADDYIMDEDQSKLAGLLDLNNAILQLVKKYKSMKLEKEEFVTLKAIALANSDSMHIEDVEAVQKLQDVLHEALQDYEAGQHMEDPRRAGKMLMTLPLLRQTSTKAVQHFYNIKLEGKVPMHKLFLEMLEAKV
Type: binding
Method: Six replicate reactions were set up and run in Applied Biosystems Quantstudio 7 Real-Time PCR system. Data were collected at a ramp rate of 0.05° C./s from 24° C. through 95° C. and analyzed using Protein Thermal Shift Software 1.3.

Row | SMILES | ΔTm at 20 µM
1 | O=C(NCc1ccccc1)c1ccc(-c2ccc(Cl)cc2)s1 [Compound 2, N-benzyl-5-(4-chlorophenyl)thiophene-2-carboxamide] | 2 to 4 °C
2 | Clc1ccc(-c2ccc(CNCc3ccccc3)s2)cc1 [Compound 3, N-benzyl-1-(5-(4-chlorophenyl)thiophen-2-yl)methanamine] | 0 to 2 °C
3 | CC(C)c1ccc(-c2ccc(COc3ccccc3)s2)cc1 [Compound 4, 2-(4-isopropylphenyl)-5-(phenoxymethyl)thiophene] | 0 to 2 °C
4 | CC(C)c1ccc(NC(=O)c2cc(-c3ccc(O)cc3)[nH]n2)cc1 [Compound 5, 3-(4-hydroxyphenyl)-N-(4-isopropylphenyl)-1H-pyrazole-5-carboxamide] | 2 to 4 °C
5 | CC(C)c1cccc(-c2ccc(C(=O)Nc3ccc(O)cc3)s2)c1 [Compound 6, N-(4-hydroxyphenyl)-5-(3-isopropylphenyl)thiophene-2-carboxamide] | 0 to 2 °C
6 | O=C(Nc1cccc(F)c1)c1ccc(-c2ccc(O)cc2)s1 [Compound 7, N-(3-fluorophenyl)-5-(4-hydroxyphenyl)thiophene-2-carboxamide] | > 4 °C
7 | O=C(Nc1ccc(O)cc1)c1coc(-c2ccsc2)n1 [Compound 10, N-(4-hydroxyphenyl)-2-(thiophen-3-yl)oxazole-4-carboxamide] | 0 to 2 °C
8 | O=C(Nc1cccc(F)c1)c1ncc(-c2ccc(O)cc2)s1 [Compound 11, N-(3-fluorophenyl)-5-(4-hydroxyphenyl)thiazole-2-carboxamide] | > 4 °C
9 | O=C(Nc1ccccc1F)c1ccc(-c2ccc(C(=O)C(F)(F)F)cc2)s1 [Compound 12, N-(2-fluorophenyl)-5-(4-(2,2,2-trifluoroacetyl)phenyl)thiophene-2-carboxamide] | 0 to 2 °C
10 | CC(C)c1ccc(-c2ccc(C(=O)Nc3ccc(O)cc3)s2)cc1 [Compound 13] | 0 to 2 °C
11 | O=C(Nc1ccc(F)cc1)c1ccc(-c2ccc(B(O)O)cc2)s1 [Compound 17] | 2 to 4 °C
12 | COc1ccc(NC(=O)c2ccc(-c3ccc(N)cc3)s2)cc1 [Compound 18] | 0 to 2 °C
13 | Cc1cccc(NC(=O)c2ccc(-c3ccc(O)cc3)s2)c1 [Compound 19] | 0 to 2 °C
14 | O=C(Nc1cccc(F)c1)c1ncc(-c2cccc(O)c2)s1 [Compound 21] | > 4 °C
15 | N#Cc1ccc(NC(=O)c2ccc(-c3cccc(O)c3)s2)cc1 [Compound 22] | 0 to 2 °C
16 | COc1ccc(NC(=O)c2ccc(-c3ccc(O)cc3)s2)cc1 [Compound 29] | 0 to 2 °C
17 | O=C(Nc1ccc2ccccc2c1)c1ccc(-c2ccc(O)cc2)s1 [Compound 31] | 0 to 2 °C
18 | Nc1ccc(-c2ccc(C(=O)NCc3cccc(F)c3)o2)cc1 [Compound 36] | 0 to 2 °C
19 | O=C(Nc1ccc2ncsc2c1)c1ccc(-c2ccc(O)cc2)o1 [Compound 41] | 2 to 4 °C
20 | O=C(Nc1ccc2ncsc2c1)c1ccc(-c2cccc(O)c2)o1 [Compound 42] | 0 to 2 °C
21 | O=C(Nc1cccc(B(O)O)c1)c1ccc(-c2ccccc2F)s1 [Compound 44] | 2 to 4 °C
22 | O=C(O)c1ccc(-c2ccc(C(=O)Nc3ccc(F)cc3)s2)cc1 [Compound 48] | 0 to 2 °C
23 | O=C(NC1CCCCC1)c1ccc(-c2ccc(O)cc2)s1 [Compound 49] | 2 to 4 °C
24 | CCOc1ccc(NC(=O)c2ccc(-c3cccc(N)c3)s2)cc1 [Compound 51] | > 4 °C
25 | CCOc1ccc(NC(=O)c2ccc(-c3cccc(O)c3)s2)cc1 [Compound 52] | 2 to 4 °C
26 | O=C(Nc1ccc2ccccc2c1)c1ccc(-c2cccc(O)c2)s1 [Compound 53] | > 4 °C

Row | SMILES | ΔTm at 20 µM
27 | Nc1cccc(-c2ccc(C(=O)Nc3ccc4ccccc4c3)s2)c1 [Compound 54] | 2 to 4 °C
28 | O=C(Nc1cccc(B(O)O)c1)c1ccc(-c2ccsc2)s1 [Compound 57] | > 4 °C
29 | O=C(Nc1cccc(F)c1)c1ccc(-c2cnc(O)nc2)s1 [Compound 58] | 0 to 2 °C
30 | O=C(Nc1ccccc1F)c1ccc(-c2cccc(B(O)O)c2)s1 [Compound 59] | 0 to 2 °C
31 | O=C(Nc1cccc(F)c1)c1ccc(-c2ccc(O)c(C(F)(F)F)c2)s1 [Compound 61] | > 4 °C
32 | O=C(Nc1ccccc1F)c1ccc(-c2cccc(O)c2)s1 [Compound 63] | 0 to 2 °C
33 | O=C(Nc1cccc(F)c1)c1ccc(-c2ccc3[nH]ccc3c2)s1 [Compound 66] | 2 to 4 °C
34 | O=C(Nc1ccc(C(F)(F)F)cc1)c1ccc(-c2ccc(O)cc2)s1 [Compound 68] | 0 to 2 °C
35 | O=C(Nc1ccc(C(F)(F)F)cc1)c1ccc(-c2ccncc2)s1 [Compound 69] | 0 to 2 °C
36 | O=C(Nc1cccc(C(F)(F)F)c1)c1ccc(-c2ccncc2)s1 [Compound 70] | 0 to 2 °C
37 | O=C(Nc1cccc(C(F)(F)F)c1)c1ccc(-c2ccc(O)cc2)s1 [Compound 71] | 0 to 2 °C
38 | COc1ccc(NC(=O)c2ccc(-c3ccsc3)s2)cc1 [Compound 73] | 0 to 2 °C
39 | COc1cc(NC(=O)c2ccc(-c3ccc(Cl)cc3)s2)cc(OC)c1 [Compound 75] | 0 to 2 °C
40 | CC(C)Cc1ccc(-c2ccc(C(=O)Nc3ccc(Cl)cc3)s2)cc1 [Compound 76] | 0 to 2 °C
41 | CC(C)Cc1ccc(-c2ccc(C(=O)Nc3cccnc3)s2)cc1 [Compound 77] | 0 to 2 °C
42 | CC(C)Cc1ccc(-c2ccc(C(=O)Nc3ccncc3)s2)cc1 [Compound 78] | 2 to 4 °C
43 | CC(C)Cc1ccc(-c2ccc(C(=O)Nc3ccc(O)cc3)s2)cc1 [Compound 79] | 2 to 4 °C
44 | Cc1ccc(-c2ccc(C(=O)Nc3ccc(Cl)cc3)s2)cc1C [Compound 80] | 0 to 2 °C
45 | Cc1ccc(-c2ccc(C(=O)Nc3cccnc3)s2)cc1C [Compound 81] | 0 to 2 °C
46 | Cc1ccc(-c2ccc(C(=O)Nc3ccncc3)s2)cc1C [Compound 82] | 0 to 2 °C
47 | Cc1ccc(-c2ccc(C(=O)Nc3ccc(O)cc3)s2)cc1C [Compound 83] | 0 to 2 °C
48 | O=C(Nc1ccc(Cl)cc1)c1ccc(-c2ccccc2F)s1 [Compound 84] | 2 to 4 °C
49 | O=C(Nc1cccnc1)c1ccc(-c2ccccc2F)s1 [Compound 85] | 0 to 2 °C
50 | O=C(Nc1ccncc1)c1ccc(-c2ccccc2F)s1 [Compound 86] | 0 to 2 °C
51 | O=C(Nc1cccnc1)c1ccc(-c2cccc(F)c2)s1 [Compound 89] | 0 to 2 °C
52 | O=C(Nc1ccncc1)c1ccc(-c2cccc(F)c2)s1 [Compound 90] | 2 to 4 °C

Row | SMILES | ΔTm at 20 µM
53 | O=C(Nc1ccc(Cl)cc1)c1ccc(-c2ccc(F)cc2)s1 [Compound 92] | 0 to 2 °C
54 | O=C(Nc1cccnc1)c1ccc(-c2ccc(F)cc2)s1 [Compound 93] | 0 to 2 °C
55 | O=C(Nc1ccncc1)c1ccc(-c2ccc(F)cc2)s1 [Compound 94] | 0 to 2 °C
56 | N#Cc1cccc(-c2ccc(C(=O)Nc3ccc(Cl)cc3)s2)c1 [Compound 96] | 0 to 2 °C
57 | N#Cc1cccc(-c2ccc(C(=O)Nc3cccnc3)s2)c1 [Compound 97] | 0 to 2 °C
58 | N#Cc1cccc(-c2ccc(C(=O)Nc3ccc(O)cc3)s2)c1 [Compound 98] | 2 to 4 °C
59 | N#Cc1ccc(-c2ccc(C(=O)Nc3ccc(Cl)cc3)s2)cc1 [Compound 99] | 0 to 2 °C
60 | N#Cc1ccc(-c2ccc(C(=O)Nc3cccnc3)s2)cc1 [Compound 100] | 0 to 2 °C
61 | N#Cc1ccc(-c2ccc(C(=O)Nc3ccncc3)s2)cc1 [Compound 101] | 0 to 2 °C
62 | N#Cc1ccc(-c2ccc(C(=O)Nc3ccc(O)cc3)s2)cc1 [Compound 102] | 2 to 4 °C
63 | O=C(Nc1cccnc1)c1ccc(-c2ccsc2)s1 [Compound 103] | 0 to 2 °C
64 | O=C(Nc1cccnc1)c1ccc(-c2ccc3ccccc3c2)s1 [Compound 106] | 2 to 4 °C
65 | O=C(Nc1ccc(Cl)cc1)c1ccc(-c2cccc(C(F)(F)F)c2)s1 [Compound 107] | 0 to 2 °C
66 | O=C(Nc1cccnc1)c1ccc(-c2cccc(C(F)(F)F)c2)s1 [Compound 108] | 0 to 2 °C
67 | O=C(Nc1ccncc1)c1ccc(-c2cccc(C(F)(F)F)c2)s1 [Compound 109] | 2 to 4 °C
68 | O=C(Nc1ccc(O)cc1)c1ccc(-c2cccc(C(F)(F)F)c2)s1 [Compound 110] | 2 to 4 °C
69 | O=C(Nc1ccc(Cl)cc1)c1ccc(-c2ccc(C(F)(F)F)cc2)s1 [Compound 111] | 0 to 2 °C
70 | O=C(Nc1cccnc1)c1ccc(-c2ccc(C(F)(F)F)cc2)s1 [Compound 112] | 0 to 2 °C
71 | O=C(Nc1ccncc1)c1ccc(-c2ccc(C(F)(F)F)cc2)s1 [Compound 113] | 0 to 2 °C
72 | CC(C)Oc1ccc(-c2ccc(C(=O)Nc3cccnc3)s2)cc1 [Compound 115] | 0 to 2 °C
73 | CC(C)Oc1ccc(-c2ccc(C(=O)Nc3ccncc3)s2)cc1 [Compound 116] | 0 to 2 °C
74 | CC(C)c1cccc(-c2ccc(C(=O)Nc3ccc(Cl)cc3)s2)c1 [Compound 117] | 0 to 2 °C
75 | CC(C)c1cccc(-c2ccc(C(=O)Nc3cccnc3)s2)c1 [Compound 118] | 0 to 2 °C
76 | CC(C)c1cccc(-c2ccc(C(=O)Nc3ccncc3)s2)c1 [Compound 119] | 0 to 2 °C
77 | O=C(Nc1ccncc1)c1ccc(-c2ccc3ccccc3c2)s1 [Compound 120] | 2 to 4 °C
78 | O=C(Nc1ccc(O)cc1)c1ccc(-c2ccc3ccccc3c2)s1 [Compound 121] | 0 to 2 °C
